Assay results from patent US20150010502A1, “Compositions and Methods for Suppressing Gene Expression of p53 and Clusterin” (priority 2011, published 2015).
e = 2'-O-(2-methoxyethyl) (MOE); d = 2'-deoxy (DNA)

Columns and labels:
[1] = test system: U2OS cells (osteosarcoma); assay: U2OS cells treated with PMO, cisplatin followed by Go6976 (FIG. 5); format: cell-based; conditions: PMO 3 uM 2 h; for enhancement of sensitivity to cisplatin: Cis 5 uM 24 h
Procedure: FIG. 5 is a graph showing the results obtained with U2OS cells treated with PMO (3 uM, 2 h), Cis (5 uM, 24 h) followed by Go6976 (100 nM, 24 h).
(§1) In further studies, additional agents were tested in conjunction with p53 morpholinos. […] We also tested these agents on U2OS cells (osteosarcoma). Again a dramatic effect on cell cycle that is dependent on PMOs and Go is observed. PMOs give a 3-fold enhancement of drug sensitivity in the caspase 3 assay. We also assessed U2OS cells treated with PMOs (p53-A and p53-B) +/−cisplatin+/−Go6976.

[2] = test system: U2OS cells (osteosarcoma); assay: U2OS cells treated with PMO, Dox followed by Go6976: cell cycle and caspase 3 assay (FIG. 4); format: cell-based; conditions: PMO 3 uM 2 h, Dox 200 ng/ml 24 h, +/- Go6976 100 nM 24 h
Procedure: FIG. 4 is a graph showing the results obtained with U2OS cells treated with PMO (3 uM, 2 h), Dox (200 ng/ml, 24 h) followed by Go6976 (100 nM, 24 h).
as §1

clusterin = conditions: cited from earlier work

Row | Compound | enhancement of sensitivity to cisplatin [1] | enhancement of drug sensitivity in the caspase 3 assay [2] [fold] | other results
1 | PMO B: p53 morpholino (PMO) with sequence corresponding to Seq Id 140 (NU(7)p53); (RX)8B CPP used in in vitro testing (GCATCAAATCATCCATTGCTTG; all phosphorodiamidate morpholino (PMO); (RX)8B cell-penetrating peptide conjugated, position not given here) | about 3 fold | 3 | –
2 | Cn1c2ccccc2c2c3c(c4c5ccccc5n(CCC#N)c4c21)CNC3=O [Go6976] | – | – | effect of Go6976 on the PMO enhancement of cisplatin sensitivity ([1]; Cis 5 uM 24 h followed by Go6976 100 nM 24 h): potentiates this enhancement
3 | SEQ ID NO: 3: clusterin antisense oligo 5′-CAGCAGCAGAGTC TTCATCAT-3′, all phosphorothioate, terminal four nucleosides each end 2′-O-methyoxyethyl (CAGCAGCAGAGTCTTCATCAT; sugars from the 5' end e4 d13 e4, all phosphorothioate, methylation of C not given here) | – | – | sensitization of cancer cells to radiation and chemotherapeutic agents (clusterin; cancer cells including prostate cancer cells): modestly sensitize some cancer cells; suppressive activity on clusterin expression (clusterin): relatively poor suppressive activity; effect on induction of apoptosis (clusterin; some cancer cells, including those deficient in p21 (WAF-1) expression): can inhibit the induction of apoptosis in some cancer cells
4 | PMO A: p53 morpholino (PMO) with sequence corresponding to Seq Id 136 (NU(4)p53); (RX)8B CPP used in in vitro testing (CCATGGCAGTGACCCGGAAGGC; all phosphorodiamidate morpholino (PMO); (RX)8B cell-penetrating peptide conjugated, position not given here) | about 3 fold | 3 | –
